Experimental data: patent US11725015B2, “Macrocyclic compound and uses thereof” (President and Fellows of Harvard College, priority 2017, dated 2023)

Assays:
[1] = test system: α-SMA positive-CAFs in the FaDu subcutaneous model; test: Effect on α-SMA positive-CAFs in the FaDu subcutaneous model (Test Example 10); assay type: in vivo, mice; settings: two days after administration
Protocol: A human squamous cell carcinoma of the head and neck (SCCHN) cell line FaDu, which had been cultured in an RPMI-1640 medium containing 10% FBS, and penicillin and streptomycin, was adjusted to a concentration of 5×10^7 cells/mL with PBS to prepare a cell suspension. The cell suspension was inoculated in a volume of 100 μL into a subcutaneous part of a right flank of nude mice, 5 to 6 weeks of ages (CAnN.Cg-Foxnlnu/CrlCrlj, female, Charles River Laboratories Japan, Inc.). Ten days after cell inoculation, a test compound in saline with 100 μM of hydroxypropyl-β-cyclodextrin was intravenously administered at ½ MTD and MTD. The experiment was conducted on groups each consisting of 3 mice. Two days after administration, tumor samples were collected and fixed with IHC Zinc Fixative (BD Pharmingen) at 4° C. for 24 hr. Paraffin-embedded tissues were sectioned (3 μm), mounted on positively charged slides, and air-dried for 6 hr. Immunohistochemical staining of α-SMA was conducted using Ventana autostainer model Discover XT (Roche Diagnostics). Sections were deparaffinized, conditioned and the antigens were retrieved with proprietary buffers, EZPrep and CC1 (Ventana Medical Systems). Mouse anti-α-SMA monoclonal antibody conjugated with alkaline phosphatase (clone 1A4, Sigma) was applied at 5 μg/mL. Sections were incubated with the antibody for 6 hr. The detection was performed with RedMap kit (Ventana Medical Systems, Inc). Sections were dehydrated in graded ethanols, defatted in xylene replacement and covered with DPX (Merck KGaA). The serial tumor slices were deparaffinized and stained with Mayer's hematoxylin (Muto Pure Chemicals) for 1 min. Sections were dehydrated in graded ethanols, defatted in xylene replacement and covered with DPX (Merck KGaA).
Immunostained slides were scanned using Vectra 2 Automated Slide Imaging System (Perkin Elmer Inc.). The area of the α-SMA-positive region in the whole tumor was quantified by counting the α-SMA-positive objects using inForm 2 software (PerkinElmer Inc.). Area of the tumor region was measured by assessing the hematoxylin-staining area using in Form 2 software (PerkinElmer Inc.). The area of the α-SMA positive region was normalized by the area of the tumor region. A suppression rate of the α-SMA positive area of the test compound-dosing group was calculated with the below formula, and shown in Table 10.

[2] = test system: human gastric cancer cell line NCI-N87; test: NCI-N87 growth inhibition assay; assay type: cell-based; settings: 3 days incubation, CellTiter-Glo
Protocol: In this assay, the growth inhibitory activities of test compounds in human gastric cancer cell lines NCI-N87 and MKN-28 were measured, respectively. NCI-N87 and MKN-28 cells were maintained in RPMI-1640 medium containing 10% FBS, penicillin and streptomycin in a 5% CO2 incubator (37° C.). To each well of a 96-well plate (Becton, Dickinson and Company, 353219), 100 μL of NCI-N87 or MKN-28 cell suspension adjusted to a concentration of 3×10^4 cells/mL with the culture medium was added, and the cells were incubated overnight in a 5% CO2 incubator (37° C.). On the next day, 100 μL of Compound (1) or Halichondrin B in three-fold dilution series suspended in the culture medium was added to each well, and the resultant was incubated for 3 days in a 5% CO2 incubator (37° C.). Then, cell viability was determined by CellTiter-Glo® Luminescent Cell Viability Assay (Promega) with EnVision 2103 Multilabel Reader (Perkin-Elmer, Wellesley, Mass.). Value of the wells containing cells without adding the test compounds was defined as 100% and the value of the wells containing no cells was defined as 0%. The concentrations of the test compound necessary for inhibiting the cell growth by 50% (i.e., an IC50 value) were calculated and are shown in Table 14.

[3] = test system: human urothelial cancer cell line SW780; test: SW780 growth inhibition assay; assay type: cell-based; settings: 3 days incubation, CellTiter-Glo
Protocol: (§1) In this assay, the growth inhibitory activities of test compounds in the human urothelial cancer cell line SW780 were measured. SW780 cells were maintained in RPMI-1640 medium containing 10% FBS, penicillin, and streptomycin in a 5% CO2 incubator (37° C.). To each well of a 96-well plate (Becton, Dickinson and Company, 353219), 100 μL of a SW780 cell suspension adjusted to a concentration of 3×10^4 cells/mL with the culture medium was added, and the cells were incubated overnight in a 5% CO2 incubator (37° C.). On the next day, 100 μL of Compound (1) or Halichondrin B in three-fold dilution series suspended in the culture medium was added to each well, and the resultant was incubated for 3 days in a 5% CO2 incubator (37° C.). Then, cell viability was determined by CellTiter-Glo® Luminescent Cell Viability Assay (Promega) with EnVision 2103 Multilabel Reader (Perkin-Elmer, Wellesley, Mass.). Value of the wells containing cells without adding the test compounds was defined as 100% and the value of the wells containing no cells was defined as 0%. The concentrations of the test compounds necessary for inhibiting the cell growth by 50% (i.e., an IC50 value) were calculated, and are shown in Table 16.

[4] = test system: human synovial sarcoma cell line HS-SY-II; test: HS-SY-II growth inhibition assay; assay type: cell-based; settings: 3 days incubation, CellTiter-Glo
Protocol: as §1, with “human synovial sarcoma” for “human urothelial cancer”, “line HS-SY-II” for “line SW780”, “measured. […]” for “measured. SW780”, “in a DMEM” for “in RPMI-1640”, “a HS-SY-II” for “a SW780”, “Table 17.” for “Table 16.”

In the case of `C=C1C[C@@H]2CC[C@@]34C[C@H]5O[C@H]6[C@@H](O3)[C@H]3O[C@H](CC[C@@H]3O[C@H]6C5O4)CC(=O)O[C@@H]3[C@@H](C)[C@@H]4O[C@@H]5C[C@]6(C[C@@H]7O[C@]8(C[C@H](C)[C@@H]9O[C@H](CN)[C@H](O)C[C@@H]9O8)C[C@H](C)[C@@H]7O6)O[C@@H]5C[C@@H]4O[C@H]3C[C@H]3O[C@@H](CC[C@@H]1O2)C[C@@H](C)C3=C` [Compound (1)], the “Suppression rate of α-SMA positive area (%)” value (“Suppression rate … (%)” below) ([1]; 0.10 mg/kg intravenously) is reported as 21%, the “Suppression rate … (%)” value ([1]; 0.20 mg/kg intravenously) is reported as 28% and the IC50 [2] is reported as 0.002 nM. The IC50 [3] was 0.017 nM and the IC50 [4] was 0.002 nM.
For `C=C1C[C@@H]2CC[C@@]34C[C@H]5O[C@H]6[C@@H](O3)[C@H]3O[C@H](CC[C@@H]3O[C@H]6[C@H]5O4)CC(=O)O[C@@H]3[C@@H](C)[C@@H]4O[C@@H]5C[C@]6(C[C@@H]7O[C@]8(C[C@H](C)[C@@H]9O[C@H]([C@@H](O)C[C@@H](O)CO)C[C@@H]9O8)C[C@H](C)[C@@H]7O6)O[C@@H]5C[C@@H]4O[C@H]3C[C@H]3O[C@@H](CC[C@@H]1O2)C[C@@H](C)C3=C` [Halichondrin B, reference compound], the “Suppression rate … (%)” value ([1]; 0.025 mg/kg intravenously) was 7%, the “Suppression rate … (%)” value ([1]; 0.05 mg/kg intravenously) was 3% and the IC50 [2] was 0.007 nM. The IC50 [3] was 0.032 nM and the IC50 [4] was 0.01 nM.
